{"source": "patent US11744853B2", "about": "“Method of administration and treatment” (Dyve Biosciences, Inc., priority 2017, dated 2023)", "key": {"MCF-7 tumors": {"test_system": "MCF-7 tumors", "experiment": "MCF-7 tumor growth in SCID mice, doxorubicin with oral or topical bicarbonate (Example 9)", "type": "in vivo", "conditions": "B doxorubicin 1.6 mg/kg i.p. days 3, 7, 11; C oral 200 mM bicarbonate; D oral bicarbonate + doxorubicin; E topical formulation 150 μL/day; F topical + doxorubicin", "text": "The start of the bicarbonate treatment was designated as day 1. […] On day 15, animals in Groups C and D were placed back on normal drinking water and animals in Groups E and F ceased received t.i.d. topical applications.\nTumor volumes and animal weights were monitored every 2 days."}, "MCF-7 cells": {"test_system": "MCF-7 cells", "experiment": "Doxorubicin uptake and cytotoxicity in MCF-7 cells at medium pH 6.8 or 7.4 (Example 9)", "type": "cell-based", "experimental": "Medium pH was buffered using non-volatile buffers (10 mM MES, 20 mM HEPES and 10 mM TRICINE) in combination with bicarbonate concentrations that were adjusted to be in equilibrium with 5% ambient carbon dioxide. Twenty-four hours later, regular growth medium was replaced and cells allowed to grow a subsequent 72 h, after which time they were fixed and stained with crystal violet for determination of cell number."}}}
{"substance": "doxorubicin", "values": [{"measurement": "reduction in tumor growth rate", "setting": "MCF-7 tumors", "result": "~30", "unit": "%"}, {"measurement": "increase in intracellular doxorubicin concentrations on raising the pHe from 6.8 to 7.4", "setting": "MCF-7 cells; 14C doxorubicin", "result": 2.56, "unit": "fold"}, {"measurement": "enhancement of cytotoxicity on raising the pHe from 6.8 to 7.4", "setting": "MCF-7 cells; 24 h exposure, crystal violet after a subsequent 72 h", "result": 2.25, "unit": "fold"}]}
